Assay [1] relates to JAK1-dependent STAT6 phosphorylation downstream of IL-13 stimulation in TF-1 human erythroleukemia cells. Briefly: JAK1 pathway assay in TF-1 cells (IL-13-pSTAT6, MSD). The class given is cell-based. The following applies: Homo sapiens, TF-1, TF-1 cells, read-out: IL13-pSTAT6 EC50_TF-1. In short, it runs like this:
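BEAS-2B: 1 h, complete growth medium, 100,000 cells/well. TF-1: 30 min, serum-free OptiMEM after overnight GM-CSF starvation, 300,000 cells/well. EC50 reported.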

In assay [2] the target is isolated recombinant JAK1 kinase domain (Homo sapiens (Human), UniProt P23458). Briefly: JAK1 enzyme assay (Caliper LabChip, peptide phosphorylation). The assay is classed as biochemical. The following applies: isolated recombinant JAK1 kinase domain, 25 μM ATP.
For assay [3], the target named is isolated recombinant JAK2 kinase domain (Homo sapiens (Human), UniProt O60674). Kind of assay: JAK2 enzyme assay (Caliper LabChip, peptide phosphorylation). The assay is classed as biochemical. The following applies: 25 μM ATP.
Assay [4] concerns JAK1-dependent STAT6 phosphorylation downstream of IL-13 stimulation in BEAS-2B human bronchial epithelial cells. Briefly: JAK1 pathway assay in BEAS-2B cells (IL-13-pSTAT6, MSD). The class given is cell-based. As to conditions: read-out: IL13-pSTAT6 EC50 (uM)_BEAS-2B. Here is the method: JAK1 Pathway Assay in Cell Lines was Carried Out as Follows:
Inhibitor potency (EC50) was determined in cell-based assays designed to measure JAK1 dependent STAT phosphorylation.
In one assay approach, TF-1 human erythroleukemia cells obtained from the American Type Culture Collection (ATCC; Manassas, Va.) were used to measure JAK1-dependent STAT6 phosphorylation downstream of IL-13 stimulation. Prior to use in the assays, TF-1 cells were starved of GM-CSF overnight in OptiMEM medium (Life Technologies, Grand Island, N.Y.) supplemented with 0.5% charcoal/dextran stripped fetal bovine serum (FBS), 0.1 mM non-essential amino acids (NEAA), and 1 mM sodium pyruvate. The assays were run in 384-well plates in serum-free OptiMEM medium using 300,000 cells per well. In a second assay approach, BEAS-2B human bronchial epithelial cells obtained from ATCC were plated at 100,000 cells per well of a 96-well plate one day prior to the experiment. The BEAS-2B assay was run in complete growth medium (bronchial epithelial basal medium plus bulletkit; Lonza; Basel, Switzerland).
Test compounds were serially diluted 1:2 in DMSO and then diluted 1:50 in medium just before use. Diluted compounds were added to the cells, for a final DMSO concentration of 0.2%, and incubated for 30 min (for the TF-1 assay) or 1 hr (for the BEAS-2B assay) at 37° C. Then, cells were stimulated with human recombinant cytokine at their respective EC90 concentrations, as previously determined for each individual lot. Cells were stimulated with IL-13 (R&D Systems, Minneapolis, Minn.) for 15 min at 37° C. The TF-1 cell reactions were stopped by the direct addition of 10× lysis buffer (Cell Signaling Technologies, Danvers, Mass.), whereas the BEAS-2B cell incubations were halted by the removal of medium and addition of 1× lysis buffer. The resultant samples were frozen in the plates at −80° C. Compound mediated inhibition of STAT6 phosphorylation was measured in the cell lysates using MesoScale Discovery (MSD) technology (Gaithersburg, Md.).

Structures can show the parent of a compound that is named as a salt.

The text below walks through data of patent publication US9346815B2, “5-chloro-2-difluoromethoxyphenyl pyrazolopyrimidine compounds, compositions and methods of use thereof” (Genentech, Inc., priority 2014, dated 2016).

The Ki is a measure of affinity in units of concentration, obtained from inhibition or displacement.

Chain of isolated recombinant JAK2 kinase domain (O60674 849-1124): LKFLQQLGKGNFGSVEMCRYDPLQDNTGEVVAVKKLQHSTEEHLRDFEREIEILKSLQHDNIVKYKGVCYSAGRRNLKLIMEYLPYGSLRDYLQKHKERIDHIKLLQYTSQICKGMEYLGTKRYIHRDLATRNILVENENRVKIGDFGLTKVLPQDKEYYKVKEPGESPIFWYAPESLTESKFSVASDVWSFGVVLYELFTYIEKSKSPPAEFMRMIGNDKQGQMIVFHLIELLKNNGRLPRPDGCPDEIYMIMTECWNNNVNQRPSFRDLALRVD
Chain of isolated recombinant JAK1 kinase domain (P23458 875-1153): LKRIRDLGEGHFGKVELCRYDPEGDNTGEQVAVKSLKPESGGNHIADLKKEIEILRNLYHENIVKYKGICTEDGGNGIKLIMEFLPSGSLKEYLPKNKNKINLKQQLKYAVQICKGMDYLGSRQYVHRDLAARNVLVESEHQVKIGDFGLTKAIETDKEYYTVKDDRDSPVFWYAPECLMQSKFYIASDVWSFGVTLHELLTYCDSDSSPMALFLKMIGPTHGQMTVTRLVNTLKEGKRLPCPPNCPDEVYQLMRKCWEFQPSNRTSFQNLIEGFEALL

With `O=C(Nc1sc(-c2ccncc2)nc1-c1cc(Cl)ccc1OC(F)F)c1cnn2cccnc12` [Example 254, N-[4-[5-chloro-2-(difluoromethoxy)phenyl]-2-(4-pyridyl)thiazol-5-yl]pyrazolo[1,5-a]pyrimidine-3-carboxamide], the EC50 in assay [1] is 117 nM. Also, the Ki in assay [2] was determined as 1.63 nM; in assay [3], 0.77 nM.

With `CN(C)Cc1ccc(-c2nc(-c3cc(Cl)ccc3OC(F)F)c(NC(=O)c3cnn4cccnc34)s2)cc1` [Example 255, N-[4-[5-chloro-2-(difluoromethoxy)phenyl]-2-[4-[(dimethylamino)methyl]phenyl]thiazol-5-yl]pyrazolo[1,5-a]pyrimidine-3-carboxamide], the EC50 in assay [1] was found to be 86.2 nM. Also, the figures for the Ki in assay [2] and in assay [3] were 0.56 nM and 0.4 nM, respectively.

Regarding `O=C(Nc1sc(-c2ccc(CN3CC(F)C3)cc2)nc1-c1cc(Cl)ccc1OC(F)F)c1cnn2cccnc12` [Example 256, N-[4-[5-chloro-2-(difluoromethoxy)phenyl]-2-[4-[(3-fluoroazetidin-1-yl)methyl]phenyl]thiazol-5-yl]pyrazolo[1,5-a]pyrimidine-3-carboxamide], the EC50 in assay [1] worked out at 92 nM. Besides, the Ki in assay [2] amounted to 1.31 nM; in assay [3], 0.95 nM.

Turning to `O=C(Nc1sc(-c2ccc(CN3CC(F)(F)C3)cc2)nc1-c1cc(Cl)ccc1OC(F)F)c1cnn2cccnc12` [Example 257, N-[4-[5-chloro-2-(difluoromethoxy)phenyl]-2-[4-[(3,3-difluoroazetidin-1-yl)methyl]phenyl]thiazol-5-yl]pyrazolo[1,5-a]pyrimidine-3-carboxamide], the EC50 in assay [1] worked out at 1000 nM. In addition, the values for the inhibition constant Ki in assay [2] and in assay [3] were 2.93 nM and 2.1 nM, respectively.

Consider `CN1CCN(c2ccc(-c3nc(-c4cc(Cl)ccc4OC(F)F)c(NC(=O)c4cnn5cccnc45)s3)cc2)CC1` [Example 258, N-[4-[5-chloro-2-(difluoromethoxy)phenyl]-2-[4-(4-methylpiperazin-1-yl)phenyl]thiazol-5-yl]pyrazolo[1,5-a]pyrimidine-3-carboxamide], for which the EC50 in assay [1] was 71 nM. For the same compound, the Ki was 1.17 nM in assay [2] and 0.72 nM in assay [3].

`CN1CCN(C(=O)c2ccc(-c3nc(-c4cc(Cl)ccc4OC(F)F)c(NC(=O)c4cnn5cccnc45)s3)cc2)CC1` [Example 259, N-[4-[5-chloro-2-(difluoromethoxy)phenyl]-2-[4-(4-methylpiperazine-1-carbonyl)phenyl]thiazol-5-yl]pyrazolo[1,5-a]pyrimidine-3-carboxamide]: the EC50 in assay [1] turned out to be 13 nM. The Ki in assay [2] amounted to 0.93 nM; in assay [3], 0.56 nM.

Take `CN(C)C1CCN(Cc2nc(-c3cc(Cl)ccc3OC(F)F)c(NC(=O)c3cnn4cccnc34)s2)CC1` [Example 260, Pyrazolo[1,5-a]pyrimidine-3-carboxylic acid [4-(5-chloro-2-difluoromethoxy-phenyl)-2-(4-dimethylamino-piperidin-1-ylmethyl)-thiazol-5-yl]-amide]: the EC50 in assay [1] is 68.5 nM. Besides, the Ki in assay [2] was found to be 7.74 nM; in assay [3], 2.65 nM.

Turning to `CN1C[C@@H]2CN(Cc3nc(-c4cc(Cl)ccc4OC(F)F)c(NC(=O)c4cnn5cccnc45)s3)C[C@@H]2C1` [Example 262, N-[2-[[(3aR,6aS)-2-methyl-1,3,3a,4,6,6a-hexahydropyrrolo[3,4-c]pyrrol-5-yl]methyl]-4-[5-chloro-2-(difluoromethoxy)phenyl]thiazol-5-yl]pyrazolo[1,5-a]pyrimidine-3-carboxamide], the EC50 in assay [1] was determined as 62.7 nM. For the same compound, the Ki amounted to 5.84 nM in assay [2] and 1.73 nM in assay [3].

For the compound `CN1C[C@@H]2CN(C(=O)c3nc(-c4cc(Cl)ccc4OC(F)F)c(NC(=O)c4cnn5cccnc45)s3)C[C@@H]2C1` [Example 264, Pyrazolo[1,5-a]pyrimidine-3-carboxylic acid [4-(5-chloro-2-difluoromethoxy-phenyl)-2-(5-methyl-hexahydro-pyrrolo[3,4-c]pyrrole-2-carbonyl)-thiazol-5-yl]-amide], the EC50 in assay [1] was 19.8 nM. In addition, the values for the Ki in assay [2] and in assay [3] were 2.69 nM and 2.38 nM, respectively.

With `CN(C)C1CCN(C(=O)c2nc(-c3cc(Cl)ccc3OC(F)F)c(NC(=O)c3cnn4cccnc34)s2)CC1` [Example 265, N-[4-[5-chloro-2-(difluoromethoxy)phenyl]-2-[4-(dimethylamino)piperidine-1-carbonyl]thiazol-5-yl]pyrazolo[1,5-a]pyrimidine-3-carboxamide], in assay [1], the EC50 was 22.8 nM. Also, the values for the Ki in assay [2] and in assay [3] were 3.63 nM and 4.29 nM, respectively.

As to `Nc1nn2cccnc2c1C(=O)Nc1cn(CC(=O)N2CCC(CO)CC2)nc1-c1cc(Cl)ccc1OC(F)F` [Example 266, 2-amino-N-[3-[5-chloro-2-(difluoromethoxy)phenyl]-1-[2-[4-(hydroxymethyl)-1-piperidyl]-2-oxo-ethyl]pyrazol-4-yl]pyrazolo[1,5-a]pyrimidine-3-carboxamide], the EC50 in assay [1] came to 5.9 nM. Moreover, the Ki stood at 0.24 nM in assay [2] and 0.1 nM in assay [3].

In the case of `O=C(Nc1cn(CC(=O)N2CCC[C@H]2C(O)CO)nc1-c1cc(Cl)ccc1OC(F)F)c1cnn2cccnc12` (stereo partly drawn) [Example 267, N-[3-[5-chloro-2-(difluoromethoxy)phenyl]-1-[2-[(2S)-2-(1,2-dihydroxyethyl)pyrrolidin-1-yl]-2-oxo-ethyl]pyrazol-4-yl]pyrazolo[1,5-a]pyrimidine-3-carboxamide], the EC50 in assay [1] was 35.8 nM. Moreover, the values for the Ki in assay [2] and in assay [3] were 0.66 nM and 0.62 nM, respectively.

Regarding `CN(C)C1CCN(C(=O)c2ccc(-n3cc(NC(=O)c4cnn5cccnc45)c(-c4cc(Cl)ccc4OC(F)F)n3)cc2)CC1` [Example 302, Pyrazolo[1,5-a]pyrimidine-3-carboxylic acid {3-(5-chloro-2-difluoromethoxy-phenyl)-1-[4-(4-dimethylamino-piperidine-1-carbonyl)-phenyl]-1H-pyrazol-4-yl}-amide hydrochloride], the EC50 in assay [1] came out at 16.2 nM. In addition, the Ki in assay [2] worked out at 0.6 nM; in assay [3], 1.11 nM.

`CN(CC(F)(F)F)C1CCN(C(=O)c2ccc(-n3cc(NC(=O)c4cnn5cccnc45)c(-c4cc(Cl)ccc4OC(F)F)n3)cc2)CC1` [Example 303, N-[3-[5-chloro-2-(difluoromethoxy)phenyl]-1-[4-[4-[methyl(2,2,2-trifluoroethyl)amino]piperidine-1-carbonyl]phenyl]pyrazol-4-yl]pyrazolo[1,5-a]pyrimidine-3-carboxamide]: in assay [1], the EC50 amounted to 78.4 nM. Also, the results for the Ki in assay [2] and in assay [3] were 1.9 nM and 3.28 nM, respectively.

In the case of `CCOC(=O)CCN1CCN(C(=O)Cn2cc(NC(=O)c3cnn4cccnc34)c(-c3cc(Cl)ccc3OC(F)F)n2)CC1` [Example 332], the EC50 in assay [4] is 0.0692 µM.

For `O=C(Nc1cn([C@@H]2CNCC[C@H]2O)nc1-c1cc(Cl)ccc1OC(F)F)c1cnn2cccnc12` [Example 360, N-[3-[5-chloro-2-(difluoromethoxy)phenyl]-1-[(3R,4R)-4-hydroxypiperidin-3-yl]-1H-pyrazol-4-yl]pyrazolo[1,5-a]pyrimidine-3-carboxamide], the EC50 in assay [4] was 0.0366 µM.

`O=C(Nc1cn([C@H]2CNCC[C@@H]2O)nc1-c1cc(Cl)ccc1OC(F)F)c1cnn2cccnc12` [Example 361, N-[3-[5-chloro-2-(difluoromethoxy)phenyl]-1-[(3S,4S)-4-hydroxypiperidin-3-yl]-1H-pyrazol-4-yl]pyrazolo[1,5-a]pyrimidine-3-carboxamide]: the EC50 in assay [4] turned out to be 0.0273 µM.

Regarding `CCN[C@@H](C)Cn1cc(NC(=O)c2cnn3cccnc23)c(-c2cc(Cl)ccc2OC(F)F)n1` [Example 371, N-[3-[5-chloro-2-(difluoromethoxy)phenyl]-1-[(2S)-2-(ethylamino)propyl]-1H-pyrazol-4-yl]pyrazolo[1,5-a]pyrimidine-3-carboxamide], the EC50 in assay [4] was found to be 0.0146 µM.

As to `CNC(=O)[C@@H]1CCCN1CC1CCN(C(=O)Cn2cc(NC(=O)c3cnn4cccnc34)c(-c3cc(Cl)ccc3OC(F)F)n2)CC1` [Example 425, N-(3-(5-chloro-2-(difluoromethoxy)phenyl)-1-(2-(4-(((S)-2-(methyl-carbamoyl)pyrrolidin-1-yl)methyl)piperidin-1-yl)-2-oxoethyl)-1H-pyrazol-4-yl)pyrazolo[1,5-a]pyrimidine-3-carboxamide], the EC50 in assay [4] came out at 0.0411 µM.
